Measured values taken from US10786488B2, “Substituted quinolizine derivatives useful as HIV integrase inhibitors” (MERCK SHARP & DOHME CORP., priority 2017, dated 2020).

Experiments:
[1] = Dog pharmacokinetic studies, oral administration to fasted Beagle dogs; assay type: in vivo; settings: dose equivalent to 10 mg/kg of Compound Int-1
Procedure: Male Beagle Dogs (Marshall Farms) were used for the pharmacokinetic studies. Studies were conducted under a protocol approved by the WP-IACUC (Animal Procedure Statement #2018-600787-MAR). Following overnight-fasting, dogs were dosed orally with either Compound Int-1 at 10 mg/kg or one of the respective prodrugs at the dose equivalent to 10 mg/kg of Compound Int-1 formulated as a suspension in Orablend® SF. Dosing was followed by 15 mL water rinse via oral gavage. Food was returned at 4 hours after dosing. Blood (0.5-mL) was drawn at pre-dose, 0.25, 0.5, 1, 2, 4, 6, 24, 30, 48, 54 and 72 hours post-dosing into EDTA-coated collection tubes containing 25 μL of 2 mM dichlorvos solution in water. The tubes were kept chilled prior to blood collection and throughout plasma separation. The plasma was separated by centrifugation (2 minutes at 10000 g). After processing, 10 uL of 10% formic acid was added to each 200 uL of plasma. Acidified plasma samples were immediately frozen and kept at −70° C. until analysis by LC-MS/MS.
Mean [±SD] Pharmacokinetic Parameters for Compounds after Oral Administration to Fasted Beagle Dogs at Dose Equivalent to 10 mg/kg of Compound Int-1.

[2] = Stability of compounds in whole blood (rat); assay type: in vitro ADME; settings: 1 μM compound, 37° C.
Procedure: (§1) Selected compounds of the present invention (1 μM) were incubated with whole blood (with heparin) from rat, dog and human. The samples were incubated for 0, 0.5, 1 and 2 hours in a 95% humidified incubator at 37° C. with 5% CO2. At each time point, the samples were quenched with acetonitrile containing an appropriate internal standard. The samples were then vortex-mixed and centrifuged at 2,500×g for 20 minutes. The supernatants were transferred to clean plates and analyzed using LC-MS/MS. The stability of the analyte was assessed by determining the percentage of drug loss over the course of time.

[3] = Stability of compounds in whole blood (dog); assay type: in vitro ADME; settings: 1 μM compound, 37° C.
Procedure: as §1

[4] = Stability of compounds in whole blood (human); assay type: in vitro ADME; settings: 1 μM compound, 37° C.
Procedure: as §1

SMILES: CCOC(=O)OCOc1c2n(cc(C(=O)NCc3ccc(F)cc3F)c1=O)C[C@@H]1OCCC[C@]1(C)C2=O [Compound 4]
- absorption versus metabolite Compound Int-1 [1]: significant increase in absorption

SMILES: CCOC(=O)Oc1c2n(cc(C(=O)NCc3ccc(F)cc3F)c1=O)C[C@@H]1OCCC[C@]1(C)C2=O [Compound 1]
- Remaining at 2 hours [2]: 0%
- Remaining at 2 hours [3]: 19%
- Remaining at 2 hours [4]: 24%

SMILES: CC(C)OC(=O)OCOc1c2n(cc(C(=O)NCc3ccc(F)cc3F)c1=O)C[C@@H]1OCCC[C@]1(C)C2=O [Compound 3]
- absorption versus metabolite Compound Int-1 [1]: significant increase in absorption
